Laboratory results: patent US6750208B1, “Medicine for treating apoptosis dysfunction containing oligosaccharides” (Laboratoires Goemar S.A., priority 1998, dated 2004)

Tested on: cells as in Example 1, FasAb-induced apoptosis
Assay: effect of I9 fractions on low dose FasAb-induced apoptosis (Example 3)
Format: cell-based
Conditions: 0.2 mg/ml simultaneously with 100 ng/ml FasAb of Euromedex origin; 24 hours of incubation
Method: The effect induced by various constituents of this mixture, in particular of fractions DP 2, DP 3, DP 4, DP 5 and DP 7, was tested.
The polymer constituting the raw material of I9 was also tested, as was the product named KIK (hexasaccharide of type kappa-iota-kappa).
For these experiments, the procedure was carried out as in Example 1, simultaneously introducing, on the one hand, 0.2 mg/ml of each of the abovementioned fractions of I9 and, on the other hand, 100 ng/ml of FasAb of Euromedex origin.
After 24 hours of incubation, the findings summarized below were made.

Substance | stimulatory effect on FasAb-induced apoptosis
iota-carrageenan | active
iota-neocarradecaose [DP 5] | inactive
iota-neocarrahexaose [DP 3] | inactive
iota-neocarraletraose [DP 2] | inactive
iota-neocarraoctaose [DP 4] | inactive
oligo-iota-carrageenan [DP 7] | 50%
